Measurements as given in patent US9726664B2, “Animal model for diabetic complications” (NEDERLANDSE ORGANISATIE VOOR …, priority 2010, dated 2017).

Experiments:
[1] = tested on: LDLr−/− mice; experiment: Intervention study in LDLr−/− mice on 45 En % Lard diet: body weight and adipose depots; type: in vivo; settings: for gonadal fat mass: drug mixed into diet from week 9 until week 16, FIG. 6
Protocol: Based on the findings of the above experiment, an intervention study was designed. The middle dose (45 En % lard diet) was defined to be the optimal diet to use for interventions with drugs since ALAT was not increased Thereby putative adverse liver effects of drugs can still be detected. Several anti-diabetic interventions (drugs and life-style) were tested according to the experimental set-up described above.
LDLr−/− mice (12 weeks old) were fed 45 En % Lard diet for 9 weeks to establish a prediabetic state (as described above and including visceral adiposity, hypertriglyceridemia, elevated glucose and insulin, chronic inflammation). After these 9 weeks, the interventions were started and continued until week 16. Drugs were mixed into lard diet and administered orally via the feed. One group of mice was sacrifice at the start of the intervention at week 9 for reference. Another control group was fed chow throughout the 16 weeks (serving as internal reference). The groups were as follows:
(§1) Body weight and food intake were measured regularly and blood samples were taken at t=0, t=6, t=9, t=12, t=14 and t=15 weeks. Spot urine was collected at t=0, t=8 and t=15 weeks. At the end of the study, the mice were sacrificed and the various organs were isolated and weighed and stored at −80 C and/or in formalin. Livers were processed for microarray analysis. More specifically, the same lobe of each liver was used for RNA extraction to prepare mRNA of microarray quality according to an established protocol (Kleemann et al., Genome Biology, 2007).

[2] = tested on: LDLr−/− mice; experiment: Intervention study in LDLr−/− mice on 45 En % Lard diet: microalbuminuria (albumine/creatinine ratio in spot urine); type: in vivo; settings: compared to high fat treated control animals not treated with drugs, ratio as μg albumine per mg creatinine, drug mixed into 45 En % Lard diet from week 9 until week 16, FIG. 7
Protocol: Several anti-diabetic interventions (drugs and life-style) were tested according to the experimental set-up described above.
After these 9 weeks, the interventions were started and continued until week 16. Drugs were mixed into lard diet and administered orally via the feed. One group of mice was sacrifice at the start of the intervention at week 9 for reference. Another control group was fed chow throughout the 16 weeks (serving as internal reference). The groups were as follows:
as §1
Microalbuminuria is a hallmark of diabetic nephropathy and was determined by measuring the concentration of albumine and creatinine in spot urine collected at various time points during the experiment. Subsequently the albumine/creatinine ratio was calculated, viz. the amount of albumine expressed in μg per mg creatinine (FIG. 7).

| SMILES | gonadal fat mass [1] | albumine/creatinine ratio (microalbuminuria) [2] | body weight ([1]; drug mixed into diet, orally via feed, from week 9 until week 16, FIG. 5) |
| --- | --- | --- | --- |
| COc1ccc(Cl)cc1C(=O)NCCc1ccc(S(=O)(=O)NC(=O)NC2CCCCC2)cc1 [glibenclamide, Glibenclamide] | lowered | significantly improved | – |
| CC(C)c1c(C(=O)Nc2ccccc2)c(-c2ccccc2)c(-c2ccc(F)cc2)n1CC[C@@H](O)C[C@@H](O)CC(=O)O [atorvastatin] | – | significantly improved | – |
| O=C(O)c1ccccc1O [salicylate] | lowered | significantly improved | – |
| O=S(=O)(c1ccccc1)N(CC(F)(F)F)c1ccc(C(O)(C(F)(F)F)C(F)(F)F)cc1 [LXR agonist] | lowered | – | reduced |
| CN(C)C(=N)N=C(N)N [metformin] | – | significantly improved | – |
